Measurements taken from patent US5032680A (priority 1988, dated 1991).

Columns and labels:
[1] = system: Mouse transplantable tumour Sarcoma 180 cells; assay: Measurement of antitumour activity value (Sarcoma 180 subcutaneously transplanted, oral administration); assay type: in vivo, male ICR/JCL mice; settings: once a day for 9 consecutive days, tumour weight on day 12, Sarcoma 180, ICR/JCL mice; for ED50 (dose at which tumour proliferation-inhibitory rate is over 50%): 17280 min
Method: Mouse transplantable tumour Sarcoma 180 cells (5×10^6 cells) were transplanted subcutaneously into male ICR/JCL mice (weighing 27-30 g) in the back. The test compounds were dissolved or suspended in a 0.5 weight % aqueous solution of CMC containing Tween 80 at the concentration of 0.1 weight % to afford test preparations. Using 7 animals per group, the test preparations were orally administered to each mouse at the dose of 0.1 ml/10 g mouse body weight once a day for consecutive 9 days from the following day of the day when the tumours were transplanted.
On the twelfth day from the day of tumour-transplantation, the average weight of tumours for each of the test compounds at the respective doses was measured. The weight was compared with the average weight of the tumours of the control group, and the tumour proliferation-inhibitory rates of the test compounds based on that of the control group were estimated at the respective dose.

tumour = settings: cited from earlier work
[2] = in vivo; cited from earlier work
[3] = in vivo; cited from earlier work; remark: listed apart in the source

Structure (SMILES)	ED50 (dose at which tumour proliferation-inhibitory rate is over 50%) [1] [mg/kg]	further results
O=c1[nH]c(=O)n([C@H]2C[C@H](O)[C@@H](COP(=O)(Oc3ccccc3)Oc3ccccc3)O2)cc1F [Ex. 1, diphenyl 2'-deoxy-5-fluoro-5'-uridylate]	11.1	–
O=C(c1ccccc1)n1c(=O)c(F)cn([C@H]2C[C@H](O)[C@@H](COP(=O)(Oc3ccccc3)Oc3ccccc3)O2)c1=O [Ex. 3, diphenyl 3-benzoyl-2'-deoxy-5-fluoro-5'-uridylate]	7.0	–
CC(C)=CCCC(C)CCOP(=O)(OC[C@H]1O[C@@H](n2cc(F)c(=O)[nH]c2=O)C[C@@H]1O)Oc1ccccc1 (stereo partly drawn) [Ex. 5, citroneryl phenyl 2'-deoxy-5-fluoro-5'-uridylate]	23.8	–
Cc1cc(OP(=O)(OC[C@H]2O[C@@H](n3cc(F)c(=O)[nH]c3=O)C[C@@H]2O)Oc2ccccc2)ccc1Cl (stereo partly drawn) [Ex. 6, 4-chloro-3-methylphenyl phenyl 2'-deoxy-5-fluoro-5'-uridylate]	6.2	–
O=c1[nH]c(=O)n([C@H]2C[C@H](O)[C@@H](COP(=O)(Oc3ccc(Cl)cc3)Oc3ccc(Cl)cc3)O2)cc1F [Ex. 7, di-p-chlorophenyl 2'-deoxy-5-fluoro-5'-uridylate]	1.4	–
O=c1[nH]c(=O)n([C@H]2C[C@H](O)[C@@H](COP(=O)(Oc3ccccc3Cl)Oc3ccccc3Cl)O2)cc1F [Ex. 8, Di-o-chlorophenyl 2'-deoxy-5-fluoro-5'-uridylate]	10.0	–
O=c1[nH]c(=O)n([C@H]2C[C@H](O)[C@@H](COP(=O)(Oc3cccc(Cl)c3)Oc3cccc(Cl)c3)O2)cc1F [Ex. 9, Di-m-chlorophenyl 2'-deoxy-5-fluoro-5'-uridylate]	1.4	–
O=c1[nH]c(=O)n([C@H]2C[C@H](O)[C@@H](COP(=O)(Oc3cccc(Cl)c3Cl)Oc3cccc(Cl)c3Cl)O2)cc1F [Ex. 10, Di(2,3-dichlorophenyl) 2'-deoxy-5-fluoro-5'-uridylate]	3.6	–
O=c1[nH]c(=O)n([C@H]2C[C@H](O)[C@@H](COP(=O)(Oc3ccc(Cl)cc3Cl)Oc3ccc(Cl)cc3Cl)O2)cc1F [Ex. 11, Di(2,4-dichlorophenyl) 2'-deoxy-5-fluoro-5-uridylate]	1.5	–
O=c1[nH]c(=O)n([C@H]2C[C@H](O)[C@@H](COP(=O)(Oc3ccc(Cl)c(Cl)c3)Oc3ccc(Cl)c(Cl)c3)O2)cc1F [Ex. 12, Di(3,4-dichlorophenyl) 2'-deoxy-5-fluoro-5'-uridylate]	2.5	–
O=c1[nH]c(=O)n([C@H]2C[C@H](O)[C@@H](COP(=O)(Oc3ccc4c(c3)OCO4)Oc3ccc4c(c3)OCO4)O2)cc1F [Ex. 13, Di(3,4-methylenedioxyphenyl) 2'-deoxy-5-fluoro-5'-uridylate]	25.0	–
N#Cc1ccc(OP(=O)(OC[C@H]2O[C@@H](n3cc(F)c(=O)[nH]c3=O)C[C@@H]2O)Oc2ccc(C#N)cc2)cc1 [Ex. 16, Di-p-cyanophenyl 2'-deoxy-5-fluoro-5'-uridylate]	6.1	–
O=c1[nH]c(=O)n([C@H]2C[C@H](O)[C@@H](COP(=O)(Oc3ccc(F)cc3)Oc3ccc(F)cc3)O2)cc1F [Ex. 17, Di-p-fluorophenyl 2'-deoxy-5-fluoro-5'-uridylate]	1.3	–
O=c1[nH]c(=O)n([C@H]2C[C@H](O)[C@@H](COP(=O)(Oc3ccc(Br)cc3)Oc3ccc(Br)cc3)O2)cc1F [Ex. 18, Di-p-bromophenyl 2'-deoxy-5-fluoro-5'-uridylate]	1.2	–
O=c1[nH]c(=O)n([C@H]2C[C@H](O)[C@@H](COP(=O)(Oc3ccc(C(F)(F)F)cc3)Oc3ccc(C(F)(F)F)cc3)O2)cc1F [Ex. 19, Di-p-trifluoromethylphenyl 2'-deoxy-5-fluoro-5'-uridylate]	0.9	–
CC(=O)O[C@H]1C[C@H](n2cc(F)c(=O)[nH]c2=O)O[C@@H]1COP(=O)(Oc1ccc(Cl)cc1)Oc1ccc(Cl)cc1 [Ex. 22, di-p-chlorophenyl 3'-acetyl-2'-deoxy-5-fluoro-5'-uridylate]	1.2	–
O=c1[nH]c(=O)n([C@H]2C[C@H](O)[C@@H](COP(=O)(Oc3ccc([N+](=O)[O-])cc3)Oc3ccc([N+](=O)[O-])cc3)O2)cc1F [Ex. 24, di-p-nitrophenyl 2'-deoxy-5-fluoro-5'-uridylate]	5.4	–
O=c1[nH]c(=O)n([C@H]2C[C@H](O)[C@@H](COP(=O)(Sc3ccc(Cl)cc3)Sc3ccc(Cl)cc3)O2)cc1F [Ex. 26, 2'-deoxy-5-fluorouridine 5'-(S,S-di-p-chlorophenylphosphorodithioate)]	4.2	–
O=c1[nH]c(=O)n([C@H]2C[C@H](O)[C@@H](CO)O2)cc1F [FdUrd, 2'-deoxy-5-fluorouridine]	–	ED50 ([1]; Mus musculus, 288 h, read-out: ED50 (dose at which tumour proliferation-inhibitory rate is over 50%)): 59.5 mg/kg; tumour proliferation-inhibitory action (in words) (tumour; cytostatic potency test (in vivo)): extremely potent tumour proliferation-inhibitory action; effect as compared with 5-fluorouracil (in words) (tumour; in vivo): can not be found to exhibit any particular superior effects as compared with 5-fluorouracil; decomposition into 5-fluorouracil (in words) [2]: a large portion thereof is decomposed into 5-fluorouracil; metabolism and excretion (in words) [2]: rapidly metabolized and excreted; toxicity of FdUrd (in words) [3]: the toxicity thereof is strong
